Results from patent US20230382924A1, “MODULATORS OF CYSTIC FIBROSIS TRANSMEMBRANE CONDUCTANCE REGULATOR” (VERTEX PHARMACEUTICALS INCORPORATED, priority 2020, published 2023).
Where two headings read alike, the source gives them in different places.

Tests used:
[1] = target: T1, F508del (Homo sapiens, UniProt P13569, DEL508-508); test: 3T3 assay: membrane potential optical assay for F508del correction in NIH 3T3 cells; format: cell-based; conditions: for Emax: NIH3T3
T1 construct: expressed in transfected cells
Description: 1. Membrane Potential Optical Methods for Assaying F508del Modulation Properties of Compounds
The assay utilizes fluorescent voltage sensing dyes to measure changes in membrane potential using a fluorescent plate reader (e.g., FLIPR III, Molecular Devices, Inc.) as a readout for increase in functional F508del in NIH 3T3 cells. The driving force for the response is the creation of a chloride ion gradient in conjunction with channel activation by a single liquid addition step after the cells have previously been treated with compounds and subsequently loaded with a voltage sensing dye.
2. Identification of Corrector Compounds
To identify correctors of F508del, a single-addition HTS assay format was developed. This HTS assay utilizes fluorescent voltage sensing dyes to measure changes in membrane potential on the FLIPR III as a measurement for increase in gating (conductance) of F508del in F508del NIH 3T3 cells. The F508del NIH 3T3 cell cultures were incubated with the corrector compounds at a range of concentrations for 18-24 hours at 37° C., and subsequently loaded with a redistribution dye. The driving force for the response is a Cl^− ion gradient in conjunction with channel activation with forskolin in a single liquid addition step using a fluorescent plate reader such as FLIPR III.
Bath Solution #1: (in mM) NaCl 160, KCl 4.5, CaCl2) 2, MgCl2 1, HEPES 10, pH 7.4 with NaOH.
Chloride-free bath solution: Chloride salts in Bath Solution #1 (above) are substituted with gluconate salts.
NIH3T3 mouse fibroblasts stably expressing F508del are used for optical measurements of membrane potential. The cells are maintained at 37° C. in 5% CO2 and 90% humidity in Dulbecco's modified Eagle's medium supplemented with 2 mM glutamine, 10% fetal bovine serum, 1×NEAA, b-ME, 1×pen/strep, and 25 mM HEPES in 175 cm^2 culture flasks. For all optical assays, the cells were seeded at ˜20,000/well in 384-well matrigel-coated plates. For the correction assays, the cells are cultured at 37° C. with and without compounds for 16-24 hours.

[2] = target: CFTR (Homo sapiens, UniProt P13569); test: Membrane Potential Dye, Enteroid Assay A; format: cell-based; conditions: for EC50: read-out: Ent. A EC50
Summary of the method: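 Signal is reported as % Activity relative to a triple CFTR modulator control (3 μM + 3 μM + 300 nM acute). Read-out: membrane potential fluorescence (20 μM methyl oxonol) monitored for 15 min after chloride-free stimulation. Dye loading took 25 min at room temperature in Bath 1 buffer containing CaCC blockers.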

[3] = Table 8, read-out: 3T3 Max Activity
[4] = NIH 3T3 cells, F508del correction

Chain of CFTR (P13569 with tags, fused parts or gaps DEL508-508): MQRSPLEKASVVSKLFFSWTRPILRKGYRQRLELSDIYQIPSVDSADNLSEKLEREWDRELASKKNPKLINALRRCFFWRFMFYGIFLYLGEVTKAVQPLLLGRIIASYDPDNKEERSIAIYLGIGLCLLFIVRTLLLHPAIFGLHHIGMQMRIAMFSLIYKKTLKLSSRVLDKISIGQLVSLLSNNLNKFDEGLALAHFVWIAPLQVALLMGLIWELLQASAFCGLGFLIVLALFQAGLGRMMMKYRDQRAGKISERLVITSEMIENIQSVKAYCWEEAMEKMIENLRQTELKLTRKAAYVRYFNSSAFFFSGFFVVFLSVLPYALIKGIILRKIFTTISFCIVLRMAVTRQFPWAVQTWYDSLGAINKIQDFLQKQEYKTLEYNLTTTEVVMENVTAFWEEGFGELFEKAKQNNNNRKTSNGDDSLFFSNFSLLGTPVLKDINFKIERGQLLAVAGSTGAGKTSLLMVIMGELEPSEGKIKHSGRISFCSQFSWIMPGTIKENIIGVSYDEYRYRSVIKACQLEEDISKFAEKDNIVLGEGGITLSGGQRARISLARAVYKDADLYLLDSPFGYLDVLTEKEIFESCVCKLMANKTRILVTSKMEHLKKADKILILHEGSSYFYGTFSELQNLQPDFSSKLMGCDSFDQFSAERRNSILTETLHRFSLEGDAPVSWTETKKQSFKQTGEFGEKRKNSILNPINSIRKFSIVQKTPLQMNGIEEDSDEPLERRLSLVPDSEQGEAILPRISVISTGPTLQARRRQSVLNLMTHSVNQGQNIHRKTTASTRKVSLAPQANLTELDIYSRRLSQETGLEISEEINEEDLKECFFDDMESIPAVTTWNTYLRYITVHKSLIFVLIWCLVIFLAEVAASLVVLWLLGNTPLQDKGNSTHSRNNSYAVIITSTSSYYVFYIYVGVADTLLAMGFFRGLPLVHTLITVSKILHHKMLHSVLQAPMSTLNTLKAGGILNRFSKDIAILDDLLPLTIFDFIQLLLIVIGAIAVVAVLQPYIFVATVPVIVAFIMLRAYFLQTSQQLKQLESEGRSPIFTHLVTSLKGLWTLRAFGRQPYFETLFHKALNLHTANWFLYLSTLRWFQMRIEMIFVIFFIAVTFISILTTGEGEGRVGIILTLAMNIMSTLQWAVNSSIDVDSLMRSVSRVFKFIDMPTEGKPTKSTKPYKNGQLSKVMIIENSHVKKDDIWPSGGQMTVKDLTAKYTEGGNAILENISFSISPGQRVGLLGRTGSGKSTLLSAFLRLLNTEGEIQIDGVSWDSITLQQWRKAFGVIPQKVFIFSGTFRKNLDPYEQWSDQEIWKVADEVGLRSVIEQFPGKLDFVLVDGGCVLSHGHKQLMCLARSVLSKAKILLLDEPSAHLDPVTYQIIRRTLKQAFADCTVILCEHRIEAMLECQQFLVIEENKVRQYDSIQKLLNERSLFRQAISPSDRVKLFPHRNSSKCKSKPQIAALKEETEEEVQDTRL
T1 sequence (P13569 with tags, fused parts or gaps DEL508-508): as above

Emax [1, 3]	EC50 ([1]; Table 8)	Ent. A Max Activity ([2]; Table 8)	EC50 ([2]; Table 8)	EC50 [1, 4]	Ent. A Max Activity ([2]; Enteroid Assay A)	EC50 ([2]; Enteroid Assay A)	Emax ([1]; heading: 3T3 Max Activity, NIH 3T3 cells, F508del correction)	3T3 Max Activity ([1]; Table 8)	SMILES
> 60%	< 1000 nM	+++ (+++ is >60%)	< 1000 nM						Cc1cccc(C)c1-c1cc2nc(n1)NS(=O)(=O)c1cccc(c1)C(=O)N[C@H](CCC(C)(C)C)CO2 (single isomer, unassigned) [Compound 47]
> 60%	< 1000 nM	+ (+ is <30%)	3000 to 30000 nM						Cc1cccc(C)c1-c1cc2nc(n1)NS(=O)(=O)c1cccc(c1)C(=O)NC[C@H](c1cccc(C(C)(C)C)c1)O2 (stereo in doubt) [Compound 274]
> 60%	< 1000 nM	+++ (+++ is >60%)	< 1000 nM						CCCC[C@@H]1Oc2cc(-c3c(C)cccc3C)nc(n2)NS(=O)(=O)c2cccc(c2)C(=O)N[C@@H]1CC1CCCCC1 (stereo in doubt) [Compound 287]
				< 1000 nM	+++ (+++ is >600%)	< 1000 nM			Cc1ccccc1-c1cc2nc(n1)NS(=O)(=O)c1cccc(c1)C(=O)N[C@H](CC(C)C)CO2 [Compound 329]
				< 1000 nM	+++ (+++ is >600%)	< 1000 nM			Cc1cccc(C)c1-c1cc2nc(n1)NS(=O)(=O)c1cccc(c1)C(=O)N[C@H](Cc1ccccc1)CO2 [Compound 350]
> 60%	< 1000 nM	+++ (+++ is >60%)	< 1000 nM						Cc1cccc(C)c1-c1cc2nc(n1)NS(=O)(=O)c1cccc(c1)C(=O)N[C@H](CC(C)C)C(C1CC1)O2 (stereo in doubt) [Compound 239]
				< 1000 nM	+++ (+++ is >600%)	< 1000 nM			Cc1cccc(C)c1-c1cc2nc(n1)NS(=O)(=O)c1cccc(c1)C(=O)NC(Cc1ccccc1)CO2 (stereo not drawn) [Compound 206]
> 60%	< 1000 nM		< 1000 nM						Cc1cc(C(C)(C)C)ccc1[C@@H]1CNC(=O)c2cccc(c2)S(=O)(=O)Nc2nc(cc(-c3c(C)cccc3C)n2)O1 [Compound 155]
> 60%	< 1000 nM	+++ (+++ is >60%)	< 1000 nM						Cc1ccccc1-c1cc2nc(n1)NS(=O)(=O)c1cccc(c1)C(=O)N[C@H](CC(C)(C)C)CO2 [Compound 305]
> 60%	< 1000 nM	+++ (+++ is >60%)	< 1000 nM						Cc1cccc(C)c1-c1cc2nc(n1)NS(=O)(=O)c1cccc(c1)C(=O)N[C@H](C(C)(C)C)CO2 [Compound 361]
				< 1000 nM	+++ (+++ is >600%)	< 1000 nM			Cc1ccccc1-c1cc2nc(n1)NS(=O)(=O)c1cccc(c1)C(=O)N[C@H](CC1CCCCC1)CO2 [Compound 316]
> 60%	< 1000 nM	+++ (+++ is >60%)	< 1000 nM						Cc1cccc(C)c1-c1cc2nc(n1)NS(=O)(=O)c1cccc(c1)C(=O)NC[C@@H](c1ccc(C(F)(F)F)cc1)O2 (stereo in doubt) [Compound 401]
> 60%	< 1000 nM	+++ (+++ is >60%)	< 1000 nM						Cc1cccc(C)c1-c1cc2nc(n1)NS(=O)(=O)c1cncc(c1)C(=O)N[C@H](CC1CCCCC1)CO2 [Compound 412]
> 60%	< 1000 nM	+++ (+++ is >60%)	< 1000 nM						Cc1cccc(C)c1-c1cc2nc(n1)NS(=O)(=O)c1cccc(c1)C(=O)N[C@H](C(CC(C)C)CC(C)C)CO2 [Compound 494]
> 60%	< 1000 nM	+++ (+++ is >60%)	< 1000 nM						Cc1cccc(C)c1-c1cc2nc(n1)NS(=O)(=O)c1cccc(c1)C(=O)N[C@H](CC1CCCCC1)[C@H](C)O2 [Compound 143]
> 60%	< 1000 nM	+++ (+++ is >60%)	< 1000 nM						Cc1cccc(C)c1-c1cc2nc(n1)NS(=O)(=O)c1cccc(n1)C(=O)N[C@H](CC1CCCCC1)CO2 [Compound 411]
> 60%	< 1000 nM	+++ (+++ is >60%)	1000 to 3000 nM						CC1=C(c2cc3nc(n2)NS(=O)(=O)c2cccc(c2)C(=O)N[C@H](CC(C)C)CO3)C(C)CCC1 (stereo partly drawn) [Compound 100, (11R)-6-(2,6-Dimethylcyclohex-1-en-1-yl)-11-(2-methylpropyl)-9-oxa-2λ^6-thia-3,5,12,19-tetraazatricyclo[12.3.1.14,8]nonadeca-1(17),4,6,8(19),14(18),15-hexaene-2,2,13-trione]
				< 1000 nM	+++ (+++ is >600%)	1000 to 3000 nM	> 60%		Cc1cccc(C)c1-c1cc2nc(n1)NS(=O)(=O)c1cccc(c1)C(=O)N[C@H]1CC[C@H](CC1)O2 [Compound 198]
	< 1000 nM	+++ (+++ is >60%)	< 1000 nM					+++ (+++ is >60%)	Cc1cccc(C)c1-c1cc2nc(n1)NS(=O)(=O)c1cccc(c1)C(=O)NCC(c1ccc(C(C)C)cc1)O2 (stereo not drawn) [Compound 271]
				< 1000 nM	++ (++ is 30-60%)	1000 to 3000 nM			Cc1ccc2cc1S(=O)(=O)Nc1nc(cc(-c3c(C)cccc3C)n1)OC[C@@H](CC1CCCCC1)NC2=O [Compound 160]
> 60%	< 1000 nM		1000 to 3000 nM						Cc1cccc(C)c1-c1cc2nc(n1)NS(=O)(=O)c1cccc(c1)C(=O)NCC(c1ccc3c(c1)CC(C)(C)O3)O2 (stereo not drawn) [Compound 115]
> 60%	< 1000 nM	+++ (+++ is >60%)	< 1000 nM						Cc1cccc(C)c1-c1cc2nc(n1)NS(=O)(=O)c1cccc(c1)C(=O)N[C@H](C1CCCCC1)CO2 [Compound 493]
> 60%	< 1000 nM	+ (+ is <30%)	1000 to 3000 nM						Cc1cccc(C)c1-c1cc2nc(n1)NS(=O)(=O)c1cccc(c1)C(=O)NCC(c1ccc(C(C)C)cc1)O2 (stereo not drawn) [Compound 272]
> 60%	< 1000 nM	+++ (+++ is >60%)	< 1000 nM						Cc1cccc(C)c1-c1cc2nc(n1)NS(=O)(=O)c1ccccc1C(=O)NCC(C1CCC(C)(C)CC1)O2 (stereo not drawn) [Compound 284]
> 60%	< 1000 nM	+ (+ is <30%)							Cc1cccc(C)c1-c1cc2nc(n1)NS(=O)(=O)c1cccc(c1)C(=O)NC[C@H](C1CCCCC1)O2 (stereo in doubt) [Compound 270]
> 60%	< 1000 nM	+++ (+++ is >60%)	1000 to 3000 nM						CC(C)C[C@@H]1COc2cc(-c3ccccc3F)nc(n2)NS(=O)(=O)c2cccc(c2)C(=O)N1 [Compound 315]
